The text below walks through data of patent US20090312406A1, “COUMARIN COMPOUNDS AND THEIR USE FOR TREATING VIRAL INFECTION” (priority 2008, published 2009).

The test system of one series is Influenza B/TW/710/05. Put plainly: Anti-influenza CPE neutralization test on MDCK cells. The series is classed as cell-based. The settings on record: Influenza B virus, Influenza B/TW/710/05, CPE. On the procedure:
(§1) Anti-influenza activities of the coumarin compounds were evaluated by measuring the ability of a test compound to inhibit the cytopathic effect induced by an influenza virus on MDCK cells. The 96-well tissue culture plates were seeded with 200 μL of MDCK cells at a concentration of 1.1×10^5 cells/mL in DMEM with 10% fetal bovine serum (FBS). The plates were incubated for 24-30 h at 37° C. and were used at about 90% confluency. Influenza A/WSN/33 (H1N1) virus (100 TCID50) was added to the cells and incubated at 35° C. for 1 h. After adsorption, the infected cell plates were overlaid with 50 μL of DMEM plus 2% FBS and a test compound with different concentrations. The plate was incubated at 35° C. for 72 h. At the end of incubation, the plates were fixed by the addition of 100 μL of 4% formaldehyde for 1 h at room temperature. After the removal of formaldehyde, the plates were stained with 0.1% crystal violet for 15 min at room temperature. The plates were washed and dried, and the density of the well was measured at 570 nm. The concentration required for a test compound to reduce the virus-induced cytopathic effect (CPE) by 50% relative to the virus control was expressed as IC50.
(§2) Compounds 1 and 95 were also tested on various influenza virus strains. Amantadine or Relenza was also tested for comparison. IC50 is defined as the concentration required for a test compound to reduce the virus-induced cytopathic effect (CPE) by 50% relative to the virus control.

The subject of another series is Influenza B/TW/70325/05. The description is as above. The series is classed as cell-based. The settings on record: Influenza B virus, Influenza B/TW/70325/05, CPE. The protocol:
as §1, §2

Series [1] concerns Influenza A/TW/785/05 (H1N1). Described as above. The series is classed as cell-based. The note with it: Influenza A virus. The protocol: as §1, §2
Series [2] concerns Influenza A/Udorn/72 (H3N2). The description is as above. The series is classed as cell-based. The note with it: Influenza A virus. On the procedure:
as §1, §2

The test system of another series is Influenza B/TW/99/07. The series is described as above. The series is classed as cell-based. The note with it: Influenza B virus, Influenza B/TW/99/07, CPE. The protocol:
as §1, §2

Series [3] relates to Influenza A/TW/83/05 (H3N2). The series is described as above. The series is classed as cell-based. The note with it: Influenza A virus. On the procedure: as §1, §2
In a further series the test system is Coxsackie B virus 3. Briefly: In vitro Coxsackie Virus B3 neutralization assay, cytopathic effect on RD cells. The series is classed as cell-based. The note with it: Coxsackie B virus 3, RD cells, CPE. The protocol:
(§3) This assay measured the ability of a test compound to inhibit the cytopathic effect induced by a picornavirus (EV71, Coxsackie Virus B3, or human rhinovirus 2) on RD cells. The method used for this assay is described in Chang et al., J Med Chem, 2005, 48(10), 3522-3535. More specifically, 96-well tissue culture plates were seeded with 200 μL of RD cells at a concentration of 3×10^5 cells/mL in DMEM with 10% FBS. The plates were incubated for 24-30 h at 37° C. and were used at about 90% confluency. Virus (100 TCID50) mixed with different concentrations of a test compound was added to the cells and incubated at 37° C. for 1 h. After adsorption, the infected cell plates were overlaid with 50 μL of DMEM plus 5% FBS and 2% DMSO. The plate was wrapped in Parafilm and incubated at 37° C. for 64 h. At the end of incubation, the plates were fixed by the addition of 100 μL of 0.5% glutaraldehyde for 1 h at room temperature. After the removal of glutaraldehyde, the plates were stained with 0.1% crystal violet for 15 min at room temperature. The plates were washed and dried, and the density of the well was measured at 570 nm. The concentration required for a test compound to reduce the virus-induced cytopathic effect (CPE) by 50% relative to the virus control is expressed as IC50.
(Damage to the host cells serves as the signal in cytopathic effect assays.)

The test system of another series is Human rhinovirus 2. Briefly: In vitro human rhinovirus 2 neutralization assay, cytopathic effect on RD cells. The series is classed as cell-based. The note with it: Rhinovirus A. On the procedure: as §3
A further series relates to Enterovirus 71 (4643). Briefly: In vitro EV 71 neutralization assay, cytopathic effect on RD cells. The series is classed as cell-based. The note with it: Enterovirus A. On the procedure:
as §3

Series [4] concerns Influenza A/WSN/33 (H1N1) virus. Put plainly: In vitro anti-influenza virus assay (neutralization test), cytopathic effect on MDCK cells. The series is classed as cell-based.
The subject of series [5] is Influenza A/TW/141/04 (H1N1). Put plainly: Anti-influenza CPE neutralization test on MDCK cells. The series is classed as cell-based. The note with it: Influenza A virus. On the procedure: as §1, §2
Series [6] has as its system Influenza A/TW/3446/04 (H3N2). The description is as above. The series is classed as cell-based. The settings on record: Influenza A virus. On the procedure:
as §1, §2

Series [7] deals with herpes simplex virus type 1. Put plainly: In vitro assessment of anti-HSV activity, plaque reduction assay in Vero cells (Example 8). The series is classed as cell-based. The protocol:
Anti-HSV activities of compounds described herein were evaluated by performing a plaque reduction assay using monolayer cultures of Vero cells in 24-well culture plates. A cell monolayer was infected with herpes simplex virus type 1 (50 pfu/well) and incubated at 37° C. with 5% CO2 for 1 h. The infected cell monolayer was then washed three times with PBS and overlaid with a solution (maintenance medium containing 1% methylcellulose and various concentrations of a test compound). After 72 h of incubation at 37° C., the cell monolayer was fixed with 10% formalin and stained with 1% crystal violet. […] The minimal concentration of a compound required to reduce 50% of plaque numbers (EC50) was calculated by regression analysis of the dose-response curves generated from the plaque assay.
Background: Plaque reduction counts the foci of infection that form in a cell layer.

In a further series the test system is HIV-1. Briefly: Inhibition of HIV-1 replication in peripheral blood mononuclear cells, viral RNA by real-time PCR. The settings on record: Human immunodeficiency virus 1, PBMC. A general note: In qPCR the cycle at which signal appears reflects the starting amount.
A short description of series [8]: Cytotoxicity (CC50) of the compounds tested in the anti-HSV assay. The settings on record: African green monkey, Vero cells; Table 5; read-out: CC50 (μM), 50% cytotoxicity concentration. The series is classed as cell-based.
The next series has as its system HSV-1. Put plainly: In vitro HSV-1 plaque reduction assay in Vero cells (Example 5). The series is classed as cell-based. The settings on record: Human alphaherpesvirus 1; HSV-1, Vero cells, 72 h; read-out: EC50 (concentration reducing 50% of plaque numbers). The protocol: The method used for this assay is described in Su et al., Antiviral Res., 2008, 79(1), 62-70.
Vero cells were seeded onto a 96-well culture plate at a concentration of 10^4 cells per well one day before infection. Next day, medium was removed and 10 plaque forming unit (pfu) HSV-1 suspension per well were added and incubated at 37° C. with 5% CO2 for 1 h. The infected cell monolayer was then washed with phosphate buffered saline (PBS) and cultured in maintenance medium containing 1 μM of compounds. After 72 h of incubation at 37° C., cell monolayer was fixed with 10% formalin and stained with 1% crystal violet.
Plaque assays were performed with monolayer cultures of Vero cells in 24-well culture plates. For plaque reduction assay, cell monolayer was infected with virus (50 pfu/well) and incubated at 37° C. with 5% CO2 for 1 h. The infected cell monolayer was then washed three times with PBS and overlaid with overlapping solution (maintenance medium containing 1% methylcellulose and various concentrations of indicated compounds). After 72 h of incubation at 37° C., cell monolayer was fixed with 10% formalin and stained with 1% crystal violet. […] The minimal concentration of compounds required to reduce 50% of plaque numbers (EC50) was calculated by regression analysis of the dose-response curves generated from plaque assays.

The next series relates to EBV. Put plainly: In vitro EBV assay, EBV reactivation in NA cells by anti-EBV-EAD immunofluorescence. The series is classed as cell-based, Epstein-Barr virus (EBV). The note with it: human gammaherpesvirus 4; EBV reactivation by TPA/SB in NA cells, compound added 24 h before; read-out: EC50 (concentration reducing 50% of virus replication numbers). On the procedure:
The method used for this assay is described in Chang et al., J Virol, 1999, 73, 8857-8866 and Tsai et al., J Virol Methods, 1991, 33, 47-52.
To suppress EBV reactivation, a test compound was added to the NA cell culture medium at indicated final concentration 24 h prior to 12-o-tetradecanoylphorbol-13-acetate (TPA)/sodium n-butyrate (SB) treatment. After treatment, the cells were fixed and assayed by anti-EBV-EAD immunofluorescence for detection of EBV reactivation. […] NA cells were subjected to treatment with the test compound 24 h prior to the addition of TPA/SB. […] Cells were stained with anti-EBV EAD antibody. […] The minimal concentration of the test compound required to reduce 50% of virus replication numbers (EC50) was calculated from regression analysis of the dose-response curves obtained from anti-EBV-EAD immunofluorescence.

The mark [9] stands for this setting: MDCK, CPE, Table 2, read-out: IC50.
[10] abbreviates: Human rhinovirus 2, RD cells, CPE, read-out: IC50.
Where [11] appears, read: Enterovirus 71 (4643), RD cells, CPE, read-out: IC50.
Setting [12] is: 72 h, read-out: Inhibition (%) Day 3.
The mark [13] stands for this setting: 120 h, read-out: Inhibition (%) Day 5.
Where [14] appears, read: 168 h, read-out: Inhibition (%) Day 7.
Setting [15] is: MDCK cells, 72 h, lower bound (10 nM), upper in μM, read-out: IC50 (concentration reducing virus-induced cytopathic effect by 50%).

For orientation: inhibition means how much of the control response was suppressed.

Like-named read-outs stand apart in the source and are kept apart here.

Procedure for HIV-1: Equal amounts of wild-type and mutant viruses were used to infect 5×10^4 peripheral blood mononuclear cells (PBMC) in 1.5 mL medium containing DMSO or various concentrations of a test compound. A half-milliliter of the culture medium was collected from each culture at days 3, 5, and 7. Viral RNA was extracted from the collected culture supernatants and the viral titers (copies/mL) were determined by real-time PCR. The percentage of inhibition was calculated as [100−(VD/VC)]×100%, where VD and VC refer to the virus titers in the presence and absence of the test compound, respectively.

For the compound `NC12CC3CC(CC(C3)C1)C2` [Amantadine], the IC50 in the series on Influenza B/TW/710/05 was more than 25000 nM; with Influenza B/TW/70325/05 it was more than 25000 nM; in series [1], 382 ± 238 nM; in series [2] it was 980 ± 147 nM; in the series on Influenza B/TW/99/07, more than 25000 nM; in series [3], more than 25000 nM. The IC50 (in the series on Coxsackie B virus 3; with Human rhinovirus 2 (RD); with Enterovirus 71 (4643) (RD); in [4] (setting [9])) was more than 25000 nM each time.

For the compound `CC(=O)N[C@H]1[C@H]([C@H](O)[C@H](O)CO)OC(C(=O)O)=C[C@@H]1N=C(N)N` [Relenza, Zanamivir, reference compound], the IC50 with Influenza B/TW/710/05 turned out to be 30 ± 19 nM; in [5] it was 350 ± 140 nM; with Influenza B/TW/70325/05 it was 20 ± 10 nM; in series [1], 1060 ± 982 nM; in [2], 670 ± 232 nM; in the series on Influenza B/TW/99/07, 99 ± 9 nM. Also, the IC50 in series [3] was 918 ± 26 nM; in series [6], 30 ± 10 nM; in the series on Coxsackie B virus 3 it was more than 25000 nM; in the series with Human rhinovirus 2 (setting [10]) it was more than 25000 nM; with Enterovirus 71 (4643) (setting [11]), more than 25000 nM; in series [4] (setting [9]), 62 ± 18 nM.

Take `Cc1cc(=O)oc2c1ccc1oc(C(=O)c3cccs3)c(-c3ccccc3)c12` [Compound 95]: the IC50 is 90 ± 10 nM with Influenza B/TW/710/05; 90 ± 10 nM in series [5]; 90 ± 10 nM in the series with Influenza B/TW/70325/05; 40 ± 10 nM in the series on Influenza B/TW/99/07; 150 ± 10 nM in series [6]; 10 to 999 nM in [4] (setting [15]). The IC50 in series [4] (setting [9]) was found to be 70 ± 10 nM. In addition, in series [7] (CC50/EC50, HSV-1), the “SI, selectivity index = CC50/EC50” value was more than 1666.666. Moreover, the EC50 in series [7] (Human alphaherpesvirus 1, herpes simplex virus type 1, Vero cells, plaque reduction, 72 h, read-out: EC50 (μM), 50% effective concentration) stood at 0.06 µM. In addition, the values for the inhibition at 0.1 µM in the series with HIV-1 (setting [12]), with HIV-1 (setting [13]) and in the series with HIV-1 (setting [14]) were 42%, 89% and 99%, respectively. Besides, the CC50 in [8] is more than 100 µM.

Turning to `Cc1cc(=O)oc2c1ccc1oc(C(=O)c3ccccc3)c(-c3ccccc3)c12` [Compound 1, 8-benzoyl-4-methyl-9-phenyl-furo[2,3-h]chromen-2-one], the IC50 in the series on Influenza B/TW/710/05 was found to be 102 ± 20 nM; in the series on Influenza B/TW/70325/05, 67 ± 2 nM; in series [1] it was 52 ± 1 nM; in [2] it was 347 ± 188 nM; in the series on Influenza B/TW/99/07, 89 ± 14 nM; in series [3] it was 57 ± 6 nM. The IC50 was 5 ± 1 nM with Coxsackie B virus 3; 12 ± 1 nM with Human rhinovirus 2 (setting [10]); 2 ± 1 nM in the series with Enterovirus 71 (4643) (setting [11]); 10 to 999 nM in series [4] (setting [15]); 119 ± 43 nM in series [4] (setting [9]). Besides, the inhibition at 0.1 µM amounted to 2% with HIV-1 (setting [12]), 82% in the series on HIV-1 (setting [13]) and 91% in the series on HIV-1 (setting [14]). In addition, the EC50 in the series with HSV-1 is approximately 500 nM; in the series on EBV, less than 500 nM.
